For one experiment, the system named is RKO. In words: cells. In kind it is cell-based. To be noted: for pIC50: read-out: Basal_Viability ATP RKO summarized IC50.
The test system of the next experiment is HeLa cells. In words: cells. In kind it is cell-based.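 On Hela CellCycMod PI 4N summarized IC50: value tracks stimulation of 4N DNA content.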
The next experiment has as its system DLD-1. In words: cells. The class given is cell-based. Conditions: for pIC50: read-out: Basal_Viability ATP DLD-1 summarized IC50.
A further experiment deals with HCT116. In words: cells. In kind it is cell-based. To be noted: for pIC50: read-out: Basal_Viability ATP HCT116 summarized IC50.
The next experiment concerns HT-29. In words: cells. In kind it is cell-based. To be noted: for pIC50: read-out: Basal_Viability ATP HT-29 summarized IC50.
For a further experiment, the system named is SNU-C1. In words: cells. In kind it is cell-based. To be noted: for pIC50: read-out: Basal_Viability ATP SNU-C1 summarized IC50.
A further experiment deals with Colo320. In words: cells. In kind it is cell-based. To be noted: for pIC50: read-out: Basal_Viability ATP Colo 320 summarized IC50.
The next experiment relates to SW480. In words: cells. The class given is cell-based. Conditions: for pIC50: read-out: Basal_Viability ATP SW480 summarized IC50.
Experiment [1] has as its system ECFC/ADSC co-culture cell nuclei number. Conditions: for pIC50: read-out: VEGF_ADSC\ECFC Angio Hoechst NucArea summarized IC50.
The subject of experiment [2] is endothelial tube formation in co-cultures of ECFCs and ADSCs treated with VEGF. In words: cells. In kind it is cell-based, human. To be noted: for pIC50: read-out: VEGF_ADSC\ECFC Angio CD31 TubeArea summarized IC50.

Molecules are shown by their SMILES. pIC50: −log10 of the molar value. Where two headings read alike, the source gives them in different places.

For the molecule `Fc1ccc(C(OCCN2CCN(CCCc3ccccc3)CC2)c2ccc(F)cc2)cc1` [NCGC00015300-10], the “IC50/EC50, Basal_Viability ATP RKO (assay number 29)” value in the experiment on RKO (basal) turned out to be 113 nM. The “IC50/EC50, Hela CellCycMod PI 2N (assay number 14)” value with HeLa cells (2N) is above 10000 nM. The “IC50/EC50, Hela CellCycMod PI 4N (assay number 16)” value in the experiment on HeLa cells (4N) was above 10000 nM. The “IC50/EC50, Hela CellCycMod PI Cell Number (assay number 18)” value in the experiment with HeLa cells (Cell Number) is 3200 nM. In addition, the “IC50/EC50, Hela CellCycMod PI MI (assay number 17)” value with HeLa cells (MI) was above 10000 nM. The “IC50/EC50, Hela CellCycMod PI S Phase (assay number 15)” value with HeLa cells (S Phase) was above 10000 nM. Besides, the “IC50/EC50, Basal_Viability ATP DLD-1 (assay number 23)” value in the experiment on DLD-1 (basal) was found to be 903.2 nM. In the experiment with HCT116 (basal), the “IC50/EC50, Basal_Viability ATP HCT116 (assay number 25)” value worked out at 4871.8 nM. In addition, the “IC50/EC50, Basal_Viability ATP HT-29 (assay number 28)” value in the experiment with HT-29 (basal) was 1485.1 nM. Further, in the experiment with SNU-C1 (basal), the “IC50/EC50, Basal_Viability ATP SNU-C1 (assay number 30)” value amounted to 1817 nM. Further, the “IC50/EC50, Basal_Viability ATP Colo 320 (assay number 27)” value in the experiment with Colo320 (basal) was above 20000 nM. In addition, in the experiment with SW480 (basal), the “IC50/EC50, Basal_Viability ATP SW480 (assay number 24)” value turned out to be 2068 nM.

As for `O=c1[nH]cc(F)c(=O)[nH]1` [NCGC00015442-15], the pIC50 in the experiment on RKO (assay number 29, basal) is below 4.70; with HeLa cells (assay number 14, 2N, read-out: Hela CellCycMod PI 2N summarized IC50), below 5.00; with HeLa cells (assay number 15, S phase, read-out: Hela CellCycMod PI S Phase summarized IC50), below 5.00; with HeLa cells (assay number 16, 4N, read-out: Hela CellCycMod PI 4N summarized IC50) it was below 5.00; in the experiment with HeLa cells (assay number 17, MI, read-out: Hela CellCycMod PI MI summarized IC50) it was below 5.00; in the experiment with HeLa cells (assay number 18, cell number, read-out: Hela CellCycMod PI Cell Number summarized IC50), below 5.00. In addition, the pIC50 is below 4.70 in the experiment on DLD-1 (assay number 23, basal); below 4.70 in the experiment on HT-29 (assay number 28, basal); below 5.00 in experiment [1]; below 4.70 with SNU-C1 (assay number 30, basal); below 4.70 in the experiment on Colo320 (assay number 27, basal); below 5.00 in experiment [2]. Further, in the experiment on SW480 (assay number 24, basal), the pIC50 was below 4.70.

On to `CS(=O)(=O)O.Cc1ccc2c(c1)c1c3n2CCNC3CCC1` (stereo not shown) [NCGC00024749-04], for which, in the experiment with RKO (assay number 29), the “Basal_Viability ATP RKO IC50/EC50” value was above 20000 nM. Moreover, in the experiment on HeLa cells (assay number 14, 2N), the “Hela CellCycMod PI 2N IC50/EC50” value is above 10000 nM. The “Hela CellCycMod PI S Phase IC50/EC50” value in the experiment on HeLa cells (assay number 15, S phase) is above 10000 nM. In the experiment on HeLa cells (assay number 16, 4N), the “Hela CellCycMod PI 4N IC50/EC50” value is above 10000 nM. In the experiment on HeLa cells (assay number 17, MI), the “Hela CellCycMod PI MI IC50/EC50” value was above 10000 nM. Besides, the “Hela CellCycMod PI Cell Number IC50/EC50” value with HeLa cells (assay number 18, cell number) was above 10000 nM. The “Basal_Viability ATP DLD-1 IC50/EC50” value in the experiment on DLD-1 (assay number 23) is above 20000 nM. Moreover, the “Basal_Viability ATP HCT116 IC50/EC50” value with HCT116 (assay number 25, basal) was above 20000 nM. Moreover, the “Basal_Viability ATP HT-29 IC50/EC50” value with HT-29 (assay number 28) is above 20000 nM. Moreover, the “Basal_Viability ATP SNU-C1 IC50/EC50” value with SNU-C1 (assay number 30) was 2476.3 nM. Also, the “Basal_Viability ATP Colo 320 IC50/EC50” value with Colo320 (assay number 27) was above 20000 nM. In addition, the “Basal_Viability ATP SW480 IC50/EC50” value with SW480 (assay number 24) was above 20000 nM.

Take `Nc1ncn([C@@H]2O[C@H](CO)[C@@H](O)[C@H]2O)c(=O)n1` [NCGC00090851-10]: in the experiment with RKO (assay number 29), the “Basal_Viability ATP RKO IC50/EC50” value worked out at 7400.4 nM. Moreover, the “Basal_Viability ATP DLD-1 IC50/EC50” value in the experiment with DLD-1 (assay number 23) amounted to 2550.2 nM. Also, the “Basal_Viability ATP HCT116 IC50/EC50” value in the experiment on HCT116 (assay number 25, basal) was found to be 3036.4 nM. The “Basal_Viability ATP HT-29 IC50/EC50” value with HT-29 (assay number 28) worked out at 12532.9 nM. The “VEGF_ADSC\ECFC Angio Hoechst NucArea IC50/EC50” value in [1] was above 10000 nM. In addition, the “Basal_Viability ATP SNU-C1 IC50/EC50” value in the experiment with SNU-C1 (assay number 30) turned out to be 1802.7 nM. Besides, in the experiment on Colo320 (assay number 27), the “Basal_Viability ATP Colo 320 IC50/EC50” value was found to be 12340.6 nM. Further, the “VEGF_ADSC\ECFC Angio CD31 TubeArea IC50/EC50” value in [2] was above 10000 nM. Moreover, the “Basal_Viability ATP SW480 IC50/EC50” value in the experiment with SW480 (assay number 24) was above 6666.7 nM.

Consider `CC(=O)[O][Hg][c]1ccccc1` [NCGC00091050-09], for which the pIC50 in the experiment with RKO (assay number 29, basal) was 5.92; with DLD-1 (assay number 23, basal), 6.13; with HCT116 (assay number 25, basal), 5.55; in the experiment on HT-29 (assay number 28, basal), 6.10; in experiment [1], 6.05; in the experiment with SNU-C1 (assay number 30, basal) it was 6.72. Also, the pIC50 is 5.88 with Colo320 (assay number 27, basal); 6.28 in experiment [2]; 6.27 with SW480 (assay number 24, basal).

As for `CN(C)c1ccc(C(=C2C=CC(=[N+](C)C)C=C2)c2ccc(N(C)C)cc2)cc1` [NCGC00091112-09], the pIC50 in the experiment on RKO (assay number 29, basal) is 6.00; in the experiment with DLD-1 (assay number 23, basal), 6.33; in the experiment with HCT116 (assay number 25, basal), 6.29; in the experiment on HT-29 (assay number 28, basal), 6.33; in [1] it was 5.74; with SNU-C1 (assay number 30, basal), 6.40. Further, the pIC50 in the experiment on Colo320 (assay number 27, basal) was 5.69; in experiment [2], 6.73; in the experiment with SW480 (assay number 24, basal), 6.28.

With `Oc1ccc(Cl)cc1Cc1cc(Cl)ccc1O` [NCGC00091325-09], the pIC50 in the experiment with RKO is 5.71; with DLD-1 it was 6.06; in the experiment with HCT116 it was 5.81; in the experiment with HT-29, 5.33; in experiment [1], 5.22; in the experiment with SNU-C1, 6.26. Further, the pIC50 in the experiment on Colo320 was 5.92; in experiment [2], 5.63; with SW480, 5.60.

(Values after PMC4503722, “Novel Phenotypic Outcomes Identified for a Public Collection of Approved Drugs from a Publicly Accessible Panel of Assays” (PLoS ONE, 2015).)
